Measurements as given in ChEMBL document CHEMBL3046431, “Novel 4H-1,2,4-triazol-3-yl cycloalkanols as potent antitubercular agents” (Med Chem Res, 2013).
≈ marks a conversion by molar mass, not a printed value.

Columns and labels:
[1] = Selectivity index, ratio of CC50 for african green monkey Vero C1008 cells to MIC for Mycobacterium tuberculosis H37Rv; format: toxicity, cell-based; conditions: read-out: Selectivity Index
[2] = Cytotoxicity against Chlorocebus aethiops (African green monkey) Vero C1008 cells assessed as cell viability after 72 hr by MTT assay; format: cell-based; conditions: chlorocebus sabaeus
[3] = system: Mycobacterium tuberculosis; assay: Antitubercular activity against Mycobacterium tuberculosis H37Rv assessed as growth inhibition after 7 days by resazurin microplate assay; format: functional; conditions: 168 h

| SMILES | selectivity ratio [1] | CC50 at 72 h [2] [µg/mL] | MIC [3] [µg/mL] |
| --- | --- | --- | --- |
| Cc1csc(-c2nnc(C3(O)C4CC5CC(C4)CC3C5)[nH]2)c1 (stereo unspecified) | 84 | 356 (≈ 1130 µM) | 4.25 (≈ 13.5 µM) |
| CC1CCC(O)(c2nnc(-c3ccncc3)[nH]2)CC1 (stereo unspecified) | 424 | 403 (≈ 1560 µM) | 0.95 (≈ 3.68 µM) |
| CC1CCC(O)(c2nnc(-c3ccccc3)[nH]2)CC1 (stereo unspecified) | 28 | 437 (≈ 1700 µM) | 15.5 (≈ 60.2 µM) |
| Cc1nnc(C2(O)CCCCC2)[nH]1 | 63 | 392 (≈ 2160 µM) | 6.25 (≈ 34.5 µM) |
| Cc1nnc(C2(O)CC(C)CC(C)(C)C2)[nH]1 (stereo unspecified) | 84 | 380 (≈ 1700 µM) | 4.5 (≈ 20.2 µM) |
| Cc1nnc(C(O)C2CC=CCC2)[nH]1 (stereo unspecified) | 62 | 318 (≈ 1650 µM) | 5.15 (≈ 26.6 µM) |
| Cc1nnc(C(O)C2CCC(O)C(O)C2)[nH]1 (stereo unspecified) | 116 | 378 (≈ 1660 µM) | 3.25 (≈ 14.3 µM) |
| Oc1ccc(-c2nnc(C3(O)CCCC3)[nH]2)cc1 | 108 | 347 (≈ 1410 µM) | 3.2 (≈ 13 µM) |
| OC1(c2nnc(-c3ccncc3)[nH]2)CCCC1 | 490 | 382 (≈ 1660 µM) | 0.78 (≈ 3.39 µM) |
| OC1(c2nnc(-c3ccccc3)[nH]2)CCCCC1 | 34 | 422 (≈ 1730 µM) | 12.4 (≈ 50.8 µM) |
| Oc1ccc(-c2nnc(C3(O)CCCCC3)[nH]2)cc1 | 45 | 340 (≈ 1310 µM) | 7.5 (≈ 28.9 µM) |
| OC1(c2nnc(-c3ccncc3)[nH]2)CCCCC1 | 698 | 412 (≈ 1690 µM) | 0.59 (≈ 2.42 µM) |
| OC1(c2nnc(-c3cccnc3)[nH]2)CCCCC1 | 88 | 397 (≈ 1630 µM) | 4.5 (≈ 18.4 µM) |
| Cc1csc(-c2nnc(C3(O)CCCCC3)[nH]2)c1 | 226 | 373 (≈ 1420 µM) | 1.65 (≈ 6.27 µM) |
| CC1CC(C)(C)CC(O)(c2nnc(-c3ccccc3)[nH]2)C1 (stereo unspecified) | 25 | 383 (≈ 1340 µM) | 15.4 (≈ 53.8 µM) |
| CC1CC(C)(C)CC(O)(c2nnc(-c3ccc(O)cc3)[nH]2)C1 (stereo unspecified) | 33 | 352 (≈ 1170 µM) | 10.5 (≈ 34.8 µM) |
| CC1CC(C)(C)CC(O)(c2nnc(-c3ccncc3)[nH]2)C1 (stereo unspecified) | 637 | 414 (≈ 1450 µM) | 0.65 (≈ 2.27 µM) |
| CC1CC(C)(C)CC(O)(c2nnc(-c3cccnc3)[nH]2)C1 (stereo unspecified) | 29 | 368 (≈ 1290 µM) | 12.5 (≈ 43.6 µM) |
| OC(c1nnc(-c2ccccc2)[nH]1)C1CC=CCC1 (stereo unspecified) | 29 | 358 (≈ 1400 µM) | 12.5 (≈ 49 µM) |
| OC(c1nnc(-c2ccncc2)[nH]1)C1CC=CCC1 (stereo unspecified) | 310 | 388 (≈ 1510 µM) | 1.25 (≈ 4.88 µM) |
| OC(c1nnc(-c2cccnc2)[nH]1)C1CC=CCC1 (stereo unspecified) | 44 | 371 (≈ 1450 µM) | 8.5 (≈ 33.2 µM) |
| OC1CCC(C(O)c2nnc(-c3ccccc3)[nH]2)CC1O (stereo unspecified) | 55 | 429 (≈ 1480 µM) | 7.75 (≈ 26.8 µM) |
| OC1CCC(C(O)c2nnc(-c3ccncc3)[nH]2)CC1O (stereo unspecified) | 477 | 429 (≈ 1480 µM) | 0.9 (≈ 3.1 µM) |
| NNC(=O)c1ccncc1 [ISONIAZID] | 499 | – | 0.4 (≈ 2.92 µM) |
